In PMC10035951, “Selenium-analogs based on natural sources as cancer-associated carbonic anhydrase isoforms IX and XII inhibitors” (Journal of Enzyme Inhibition and Medicinal Chemistry, 2023):
pKi: −log10 of the molar value. Read-outs that look alike come from different tables or passages of the source.

Legend:
hCA I = target: T1, hCA I (Homo sapiens, UniProt P00915); assay: CA catalysed CO2 hydration, stopped-flow inhibition; format: biochemical
T1 construct: made in house
Protocol: (§1) The uncatalyzed rates were determined in the same manner and subtracted from the total observed rates. Stock solutions of inhibitor (0.1 mM) were prepared in distilled − deionized water and dilutions up to 0.01 nM were done thereafter with the assay buffer. Inhibitor and enzyme solutions were preincubated together for 15 min at room temperature before assay to allow for the formation of the E − I complex. The inhibition constants were obtained by nonlinear least-squares methods using PRISM 3 and the Cheng − Prusoff equation, as reported earlier,[39]^,[40] and represent the mean from at least three different determinations. […] All human CA (hCA) isoforms were recombinant ones obtained in-house as reported earlier.[41]^,[42]

hCA II = target: T2, hCA II (Homo sapiens, UniProt P00918); assay: as above; format: biochemical
T2 construct: made in house
Protocol: as §1

hCA IX = target: T3, hCA IX (Homo sapiens, UniProt Q16790); assay: as above; format: biochemical; details: for pKi: recombinant hCA IX, stopped-flow CO2 hydration, 15 min preincubation
T3 construct: made in house
Protocol: as §1

hCA XII = target: T4, hCA XII (Homo sapiens, UniProt O43570); assay: as above; format: biochemical
T4 construct: made in house
T4 sequence (O43570 25-354): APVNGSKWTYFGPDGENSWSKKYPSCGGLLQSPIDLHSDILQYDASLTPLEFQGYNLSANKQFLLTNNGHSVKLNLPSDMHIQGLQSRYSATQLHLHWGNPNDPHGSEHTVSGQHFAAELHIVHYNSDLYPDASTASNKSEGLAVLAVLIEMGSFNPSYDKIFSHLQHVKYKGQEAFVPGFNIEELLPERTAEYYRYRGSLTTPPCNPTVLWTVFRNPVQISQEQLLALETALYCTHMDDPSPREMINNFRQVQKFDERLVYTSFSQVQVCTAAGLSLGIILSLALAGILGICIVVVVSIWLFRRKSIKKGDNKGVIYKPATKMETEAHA
Protocol: An Applied Photophysics stopped-flow instrument has been used for assaying the CA catalysed CO2 hydration activity.[38] Phenol red (at a concentration of 0.2 mM) has been used as an indicator, working at the absorbance maximum of 557 nm, with 20 mM Hepes (pH 7.5) as a buffer and 20 mM Na2SO4 (for maintaining constant the ionic strength), following the initial rates of the CA-catalysed CO2 hydration reaction for a period of 10–100 s. The CO2 concentrations ranged from 1.7 to 17 mM for the determination of the kinetic parameters and inhibition constants. […]. The uncatalyzed rates were determined in the same manner and subtracted from the total observed rates. Stock solutions of inhibitor (0.1 mM) were prepared in distilled − deionized water and dilutions up to 0.01 nM were done thereafter with the assay buffer. Inhibitor and enzyme solutions were preincubated together for 15 min at room temperature before assay to allow for the formation of the E − I complex. The inhibition constants were obtained by nonlinear least-squares methods using PRISM 3 and the Cheng − Prusoff equation, as reported earlier,[39]^,[40] and represent the mean from at least three different determinations. The enzyme concentrations were in the range 3–11 nM. All human CA (hCA) isoforms were recombinant ones obtained in-house as reported earlier.[41]^,[42]

[1] = tested on: hCA isoforms I, II, VA, IX, and XII; assay: CA inhibition, summary statements over all tested isoforms; format: biochemical, human; details: for isoform selectivity (in words): from the Ki values of Table 1; for pKi: all CA isoforms tested for series b, read-out: Ki range over all CA isoforms
Protocol: An Applied Photophysics stopped-flow instrument has been used for assaying the CA catalysed CO2 hydration activity.[38] Phenol red (at a concentration of 0.2 mM) has been used as an indicator, working at the absorbance maximum of 557 nm, with 20 mM Hepes (pH 7.5) as a buffer and 20 mM Na2SO4 (for maintaining constant the ionic strength), following the initial rates of the CA-catalysed CO2 hydration reaction for a period of 10–100 s. The CO2 concentrations ranged from 1.7 to 17 mM for the determination of the kinetic parameters and inhibition constants. For each inhibitor, at least six traces of the initial 5 − 10% of the reaction have been used for determining the initial velocity. The uncatalyzed rates were determined in the same manner and subtracted from the total observed rates. Stock solutions of inhibitor (0.1 mM) were prepared in distilled − deionized water and dilutions up to 0.01 nM were done thereafter with the assay buffer. Inhibitor and enzyme solutions were preincubated together for 15 min at room temperature before assay to allow for the formation of the E − I complex. The inhibition constants were obtained by nonlinear least-squares methods using PRISM 3 and the Cheng − Prusoff equation, as reported earlier,[39]^,[40] and represent the mean from at least three different determinations. The enzyme concentrations were in the range 3–11 nM. All human CA (hCA) isoforms were recombinant ones obtained in-house as reported earlier.[41]^,[42]

[2] = recombinant hCA I, stopped-flow CO2 hydration, 15 min preincubation, read-out: Ki hCA I
[3] = recombinant hCA II, stopped-flow CO2 hydration, 15 min preincubation, read-out: Ki hCA II
[4] = recombinant hCA XII, stopped-flow CO2 hydration, 15 min preincubation, read-out: Ki hCA XII

T1 sequence (P00915 whole entry): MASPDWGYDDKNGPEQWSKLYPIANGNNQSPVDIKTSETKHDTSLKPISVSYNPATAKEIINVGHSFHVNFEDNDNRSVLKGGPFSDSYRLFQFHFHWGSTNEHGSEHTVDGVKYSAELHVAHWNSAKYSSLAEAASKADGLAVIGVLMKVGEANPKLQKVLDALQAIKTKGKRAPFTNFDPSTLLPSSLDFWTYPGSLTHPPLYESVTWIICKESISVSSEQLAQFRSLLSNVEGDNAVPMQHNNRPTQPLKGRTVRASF

Compound: C=CC[Se]C(=O)c1ccno1 [Compound 12a]
- pKi (hCA I; [2]): < 4.00
- pKi (hCA II; [3]): < 4.00
- pKi (hCA IX): < 4.00

Compound: C#CC[Se]C(=O)c1cccnc1 [Compound 7b]
- pKi (hCA XII; [4]): 4.07
- pKi (hCA I; [2]): 4.52
- pKi (hCA II; [3]): 4.18
- pKi (hCA IX): 4.42

Compound: C=CC[Se]C(=O)c1ccccc1 [Compound 2a]
- pKi (hCA I; [2]): < 4.00
- pKi (hCA II; [3]): < 4.00
- pKi (hCA IX): < 4.00

Compound: C=CC[Se]C(=O)c1cccnc1 [Compound 7a]
- pKi (hCA I; [2]): < 4.00
- pKi (hCA II; [3]): < 4.00
- pKi (hCA IX): < 4.00

Compound: C=CC[Se]C(=O)c1ccccc1Cl [Compound 3a]
- pKi (hCA I; [2]): < 4.00
- pKi (hCA II; [3]): < 4.00
- pKi (hCA IX): < 4.00

Compound: C#CC[Se]C(=O)C=Cc1ccccc1 [Compound 5b]
- pKi (hCA XII; [4]): < 4.00
- pKi (hCA I; [2]): 4.62
- pKi (hCA II; [3]): 4.37
- pKi (hCA IX): 4.10

Compound: C#CC[Se]C(=O)c1ccccc1Cl [Compound 3b]
- pKi (hCA XII): 4.54
- pKi (hCA I): 4.38
- pKi (hCA II): < 4.00
- pKi (hCA IX): 4.38

Compound: C#CC[Se]C(=O)c1sccc1Cl [Compound 10b]
- pKi (hCA XII; [4]): 4.01
- pKi (hCA I; [2]): < 4.00
- pKi (hCA II; [3]): 4.05
- pKi (hCA IX): < 4.00

Compound: C=CC[Se]C(=O)c1ccco1 [Compound 11a]
- pKi (hCA I; [2]): < 4.00
- pKi (hCA II; [3]): < 4.00
- pKi (hCA IX): < 4.00

Compound: C#CC[Se]C(=O)c1ccc2c(c1)OCO2 [Compound 4b]
- pKi (hCA XII; [4]): < 4.00
- pKi (hCA I; [2]): 4.50
- pKi (hCA II; [3]): 4.27
- pKi (hCA IX): 4.17

Compound: C=CC[Se]C(=O)c1ccccc1O [Compound 13a]
- pKi (hCA I; [2]): < 4.00
- pKi (hCA II; [3]): < 4.00
- pKi (hCA IX): < 4.00

Compound: C=CC[Se]C(=O)[C@@H](C)c1ccc2cc(OC)ccc2c1 [Compound 16a]
- pKi (hCA I; [2]): < 4.00
- pKi (hCA II; [3]): < 4.00
- pKi (hCA IX): < 4.00

Compound: C#CC[Se]C(=O)c1ccccc1 [Compound 2b]
- pKi (hCA XII; [4]): 4.25
- pKi (hCA I; [2]): 4.09
- pKi (hCA II; [3]): < 4.00
- times higher inhibition of CA IX than of isoform I (hCA IX; CA IX versus CA I): ~13 times
- times higher inhibition of CA IX than of isoform II (hCA IX; CA IX versus CA II): ~10 times
- pKi (hCA IX): 5.11

Compound: C#CC[Se]C(=O)C12CC3CC(CC(C3)C1)C2 [Compound 1b]
- pKi (hCA XII; [4]): 4.55
- pKi (hCA I; [2]): < 4.00
- pKi (hCA II; [3]): < 4.00
- pKi (hCA IX): 5.04
- isoform selectivity (in words) [1]: selectivity for tumour-associated isoforms IX and XII

Compound: C=CC[Se]C(=O)c1ccccc1OC(C)=O [Compound 14a]
- pKi (hCA I; [2]): < 4.00
- pKi (hCA II; [3]): < 4.00
- pKi (hCA IX): < 4.00

Compound: C#CC[Se]C(=O)Cc1c(C)n(C(=O)c2ccc(Cl)cc2)c2ccc(OC)cc12 [Compound 17b]
- pKi (hCA XII; [4]): < 4.00
- pKi (hCA I; [2]): < 4.00
- pKi (hCA II; [3]): < 4.00
- pKi (hCA IX): 4.23
- isoform selectivity (in words) [1]: selectivity for tumour-associated isoform IX

Compound: C=CC[Se]C(=O)c1cccnc1Cl [Compound 8a]
- pKi (hCA I; [2]): < 4.00
- pKi (hCA II; [3]): < 4.00
- pKi (hCA IX): 4.05

Compound: C#CC[Se]C(=O)c1ccco1 [Compound 11b]
- pKi (hCA XII; [4]): 4.22
- pKi (hCA I; [2]): 5.07
- pKi (hCA II; [3]): 4.30
- pKi (hCA IX): 5.15

Compound: C=CC[Se]C(=O)c1sccc1Cl [Compound 10a]
- pKi (hCA I; [2]): < 4.00
- pKi (hCA II; [3]): < 4.00
- pKi (hCA IX): < 4.00

Compound: C#CC[Se]C(=O)CCc1ccccc1 [Compound 6b]
- pKi (hCA XII): 5.15
- pKi (hCA I): 5.51
- times more potent than analog without the spacer (2b) (hCA I; CA I, Ki ratio versus 2b): 26 times
- times more potent than analog with the double-bond spacer (5b) (hCA I; CA I, Ki ratio versus 5b): 7.7 times
- pKi (hCA II): 5.02
- pKi (hCA IX): 4.60
- pKi [1]: 4.31 to 5.66

Compound: C=CC[Se]C(=O)C=Cc1ccccc1 [Compound 5a]
- pKi (hCA I; [2]): < 4.00
- pKi (hCA II; [3]): < 4.00
- pKi (hCA IX): < 4.00

Compound: C#CC[Se]C(=O)c1ccccc1Nc1cccc(C(F)(F)F)c1 [Compound 19b]
- pKi (hCA XII; [4]): < 4.00
- pKi (hCA I; [2]): < 4.00
- pKi (hCA II; [3]): < 4.00
- pKi (hCA IX): 5.02
- isoform selectivity (in words) [1]: selectivity for tumour-associated isoform IX

Compound: C#CC[Se]C(=O)c1ccno1 [Compound 12b]
- pKi (hCA XII; [4]): 4.18
- decrease of inhibitory capacity on substitution of furan ring (11b) by isoxazole (hCA I; CA I, Ki ratio versus 11b): ~7 fold
- pKi (hCA I; [2]): 4.23
- pKi (hCA II; [3]): < 4.00
- pKi (hCA IX): 4.65

Compound: C#CC[Se]C(=O)c1ccccc1O [Compound 13b]
- pKi (hCA XII; [4]): < 4.00
- pKi (hCA I; [2]): 4.63
- pKi (hCA II; [3]): < 4.00
- pKi (hCA IX): 4.26
- isoform selectivity (in words) [1]: selectivity for cytosolic CA I isoform and tumour-associated CA IX

Compound: C#CC[Se]C(=O)c1cccs1 [Compound 9b]
- pKi (hCA XII; [4]): 4.01
- pKi (hCA I; [2]): 5.04
- pKi (hCA II; [3]): 4.33
- pKi (hCA IX): < 4.00

Compound: C#CC[Se]C(=O)c1cccnc1Cl [Compound 8b]
- pKi (hCA XII; [4]): 5.02
- increase of inhibitory activity compared to unsubstituted pyridine (hCA I; CA I, Ki ratio versus 7b): 13.7 times
- pKi (hCA I; [2]): 5.66
- pKi (hCA II; [3]): 5.07
- pKi (hCA IX): 4.31
- pKi [1]: 4.31 to 5.66

Compound: C#CC[Se]C(=O)[C@@H](C)c1ccc2cc(OC)ccc2c1 [Compound 16b]
- pKi (hCA XII; [4]): < 4.00
- pKi (hCA I; [2]): 4.04
- pKi (hCA II; [3]): < 4.00
- pKi (hCA IX): 4.61
- isoform selectivity (in words) [1]: selectivity for cytosolic CA I isoform and tumour-associated CA IX

Compound: C=CC[Se]C(=O)C12CC3CC(CC(C3)C1)C2 [Compound 1a]
- pKi (hCA I; [2]): < 4.00
- pKi (hCA II; [3]): < 4.00
- pKi (hCA IX): < 4.00

Compound: C#CC[Se]C(=O)c1ccccc1OC(C)=O [Compound 14b]
- pKi (hCA XII; [4]): 4.05
- pKi (hCA I; [2]): 5.30
- pKi (hCA II; [3]): 4.26
- pKi (hCA IX): < 4.00

Compound: C=CC[Se]C(=O)c1cccs1 [Compound 9a]
- pKi (hCA I; [2]): < 4.00
- pKi (hCA II; [3]): < 4.00
- pKi (hCA IX): < 4.00

Compound: C#CC[Se]C(=O)C(C)c1ccc(CC(C)C)cc1 (stereo not shown) [Compound 15b]
- pKi (hCA XII; [4]): < 4.00
- pKi (hCA I; [2]): 4.11
- pKi (hCA II; [3]): < 4.00
- pKi (hCA IX): 4.32
- isoform selectivity (in words) [1]: selectivity for cytosolic CA I isoform and tumour-associated CA IX

Compound: C#CC[Se]C(=O)c1ccccc1Nc1cccc(C)c1C [Compound 18b]
- pKi (hCA XII; [4]): 4.33
- pKi (hCA I; [2]): < 4.00
- fold greater inhibition potency for CA II than for CA I (hCA II; CA II versus CA I): 22 fold
- pKi (hCA II; [3]): 5.35
- pKi (hCA IX): 5.02
